Source: ChEMBL document CHEMBL1152120, “RP 73163: A bioavailable alkylsulphinyl-diphenylimidazole ACAT inhibitor” (Bioorg Med Chem Lett, 1996)

Assays:
[1] = target: T1, Acyl-CoA:cholesterol acyltransferase (Oryctolagus cuniculus, UniProt Q95214); assay: Compound was evaluated for inhibitory activity against Acyl coenzyme A:cholesterol acyltransferase in microsomes from rabbit liver.
T1 sequence (Q95214 whole entry): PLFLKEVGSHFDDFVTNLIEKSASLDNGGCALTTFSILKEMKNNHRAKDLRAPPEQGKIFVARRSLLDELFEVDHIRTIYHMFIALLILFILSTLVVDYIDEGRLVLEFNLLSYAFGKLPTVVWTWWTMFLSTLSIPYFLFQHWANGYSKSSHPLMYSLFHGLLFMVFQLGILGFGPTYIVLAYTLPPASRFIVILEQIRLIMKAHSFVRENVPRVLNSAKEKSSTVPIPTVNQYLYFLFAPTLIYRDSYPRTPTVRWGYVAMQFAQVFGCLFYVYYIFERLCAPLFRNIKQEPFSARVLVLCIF

[2] = target: T1, Acyl-CoA:cholesterol acyltransferase; assay: Compound was evaluated for inhibitory activity against Acyl coenzyme A:cholesterol acyltransferase in microsomes from rabbit adrenal.
[3] = target: T1, Acyl-CoA:cholesterol acyltransferase; assay: Compound was evaluated for inhibitory activity against Acyl coenzyme A:cholesterol acyltransferase in microsomes from rabbit intestine.
[4] = target: T1, Acyl-CoA:cholesterol acyltransferase; assay: Compound was evaluated for inhibitory activity against Acyl coenzyme A:cholesterol acyltransferase in microsomes from rabbit artery.

SMILES: Cc1cc(C)n(CCCCC[S+]([O-])c2nc(-c3ccccc3)c(-c3ccccc3)[nH]2)n1 (centres undefined)
- IC50 [1]: 122 nM
- IC50 [2]: 208 nM
- IC50 [3]: 370 nM
- IC50 [4]: 245 nM
